Reference: patent US20240116962A1, “PYRIDINE-2-AMINE DERIVATIVE AND PHARMACEUTICAL COMPOSITION AND USE THEREOF” (TSINGHUA UNIVERSITY, priority 2020, published 2024)
Read-outs that look alike come from different tables or passages of the source.

What was measured:
[1] = target: T1, hTLR7 (Homo sapiens, UniProt Q9NYK1); assay: EC50 assay for small molecule agonists, HEK-Blue hTLR7 cells, SEAP readout; type: cell-based; details: agonist activity, nd = EC50 larger than 25 μM
T1 construct: host or cells: HEK-Blue hTLR7 (HEK293-derived reporter cells with SEAP read-out)
T1 sequence (Q9NYK1 27-1049): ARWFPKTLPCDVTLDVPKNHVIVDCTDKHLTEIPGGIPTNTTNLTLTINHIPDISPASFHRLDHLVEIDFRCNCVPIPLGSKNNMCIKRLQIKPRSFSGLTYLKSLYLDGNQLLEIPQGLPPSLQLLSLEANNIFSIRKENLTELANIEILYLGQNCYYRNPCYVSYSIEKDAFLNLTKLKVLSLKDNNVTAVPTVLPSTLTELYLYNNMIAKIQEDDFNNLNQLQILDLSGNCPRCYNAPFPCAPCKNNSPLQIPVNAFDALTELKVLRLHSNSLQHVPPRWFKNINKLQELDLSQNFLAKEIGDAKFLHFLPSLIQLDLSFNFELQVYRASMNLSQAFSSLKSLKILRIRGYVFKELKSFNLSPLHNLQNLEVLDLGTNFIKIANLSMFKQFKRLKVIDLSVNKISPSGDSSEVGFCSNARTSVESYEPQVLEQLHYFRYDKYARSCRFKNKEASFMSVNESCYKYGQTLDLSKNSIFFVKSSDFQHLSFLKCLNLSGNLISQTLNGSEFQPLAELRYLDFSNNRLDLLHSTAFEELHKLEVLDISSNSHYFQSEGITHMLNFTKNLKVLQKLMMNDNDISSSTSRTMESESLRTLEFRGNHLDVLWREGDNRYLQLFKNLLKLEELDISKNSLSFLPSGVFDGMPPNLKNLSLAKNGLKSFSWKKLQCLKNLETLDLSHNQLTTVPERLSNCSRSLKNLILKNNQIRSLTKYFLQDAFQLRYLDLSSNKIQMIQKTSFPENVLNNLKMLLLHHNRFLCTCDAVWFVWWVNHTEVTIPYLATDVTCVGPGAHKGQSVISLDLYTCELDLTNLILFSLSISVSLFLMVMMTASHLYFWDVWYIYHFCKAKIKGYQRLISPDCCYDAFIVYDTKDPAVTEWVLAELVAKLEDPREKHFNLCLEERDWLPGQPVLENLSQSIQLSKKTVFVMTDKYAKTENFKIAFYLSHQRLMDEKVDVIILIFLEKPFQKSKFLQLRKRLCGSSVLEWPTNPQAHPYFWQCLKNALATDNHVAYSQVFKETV
Description: (§1) Reagents used for cell culture and detection for HEK-Blue™ hTLR7, HEK-Blue™ hTLR8 and control HEK-Blue Nu112k were as follows: DMEM (4.5 g/L glucose), bovine serum FBS, streptomycin ([…]), penicillin (50 U/mL), Blasticidin (10 mg/mL), Zeocin™ (10 mg/mL), Normocin (50 mg/mL), and HEK-Blue™ Detection. Basal medium was as follows: DMEM +10% FBS+streptomycin+penicillin+Normocin ([…]); selective medium for resistance genes was as follows: DMEM+10% FBS+streptomycin+penicillin+Normocin (1001 μg/mL)+Blasticidin (1001 μg/mL)+Zeocin™ (1001 μg/mL).
(§2) Cell preparation: HEK-Blue™ hTLR7 and HEK-Blue™ hTLR8 cell lines were purchased from Invivogen. The cells frozen in liquid nitrogen were taken, quickly placed in a water bath at 37° C., shaken occasionally, and completely melted within 1 min. The cells were transferred to 15 mL of pre-heated basal medium and resuspended; centrifuged at 1,000 r/min for 5 min, supernatant discarded; resuspended with 1 mL of basal medium, transferred to a T25 culture flask, supplemented to 5 mL with the medium, and incubated in an incubator at 37° C.; after stable passage twice, and subjected to selective antibiotic screening: HEK-Blue™ hTLR7 or HEK-Blue™ hTLR8: 100 μg/mL Zeocin+Blasticidin (30 μg/mL), HEK-Blue Nu112-k: 100 μg/mL Zeocin. The fluid was changed 3 times a week. When the number of cells reached 70%-80%, PBS was added, and the cells were exfoliated by gently pipetting.
(§3) Activity assay steps: (1) adding a test sample to a 96-well plate at 20 μL/well (triplicate wells were set); (2) adding 20 μL of positive control (e.g., R848), and adding 20 μL of negative control (e.g., ddH2O); (3) removing a T75 culture flask from the incubator, discarding the medium, adding 5-10 mL of pre-heated PBS, and gently pipetting the cells; adding 2-5 mL of PBS to the culture flask, incubating the culture flask in the incubator for 1-2 min, and then gently pipetting the cells to make them exfoliated; (4) mixing the mixture well, and counting the cells, without centrifugation; resuspending the cells with HEK-Blue™ assay solution and adjusting the cell number, taking care not to incubate for a long time to avoid too deep background or false positive. HEK-Blue hTLR cell number was about 2.2×10^5/mL, 180 μL/well (about 40000 cells), and HEK-Blue Nu112-k cell number was about 2.8×10^5/mL, 180 μL/well (about 50000 cells). (5) incubating the cells in the incubator at 37° C. for 6-16 h, and detecting at 620-655 nm for SEAP readings.
(§4) Effect %=(mean OD of the administration group−mean OD of the H2O group at each concentration)/(mean ODmax of the positive drug group−mean OD of the H2O group)×100. EC50 was calculated by fitting Lg [concentration]-effect curves using GraphPad Prism5 software.
(§5) Experimental results: the concentration for 50% of maximal effect (EC50) refers to a corresponding concentration of small molecules that can cause 50% of the maximal agonistic effect. […] EC50 represents a potency for agonizing the TLR8 receptor, with smaller values indicating better efficacy. […] In the following table, the unit of the agonist activity is nanomole, unless otherwise specified.

[2] = target: T2, hTLR8 (Homo sapiens, UniProt Q9NR97); assay: EC50 assay for small molecule agonists, HEK-Blue hTLR8 cells, SEAP readout; type: cell-based
T2 construct: host or cells: HEK-Blue hTLR8 (HEK293-derived reporter cells with SEAP read-out)
T2 sequence (Q9NR97 27-1041): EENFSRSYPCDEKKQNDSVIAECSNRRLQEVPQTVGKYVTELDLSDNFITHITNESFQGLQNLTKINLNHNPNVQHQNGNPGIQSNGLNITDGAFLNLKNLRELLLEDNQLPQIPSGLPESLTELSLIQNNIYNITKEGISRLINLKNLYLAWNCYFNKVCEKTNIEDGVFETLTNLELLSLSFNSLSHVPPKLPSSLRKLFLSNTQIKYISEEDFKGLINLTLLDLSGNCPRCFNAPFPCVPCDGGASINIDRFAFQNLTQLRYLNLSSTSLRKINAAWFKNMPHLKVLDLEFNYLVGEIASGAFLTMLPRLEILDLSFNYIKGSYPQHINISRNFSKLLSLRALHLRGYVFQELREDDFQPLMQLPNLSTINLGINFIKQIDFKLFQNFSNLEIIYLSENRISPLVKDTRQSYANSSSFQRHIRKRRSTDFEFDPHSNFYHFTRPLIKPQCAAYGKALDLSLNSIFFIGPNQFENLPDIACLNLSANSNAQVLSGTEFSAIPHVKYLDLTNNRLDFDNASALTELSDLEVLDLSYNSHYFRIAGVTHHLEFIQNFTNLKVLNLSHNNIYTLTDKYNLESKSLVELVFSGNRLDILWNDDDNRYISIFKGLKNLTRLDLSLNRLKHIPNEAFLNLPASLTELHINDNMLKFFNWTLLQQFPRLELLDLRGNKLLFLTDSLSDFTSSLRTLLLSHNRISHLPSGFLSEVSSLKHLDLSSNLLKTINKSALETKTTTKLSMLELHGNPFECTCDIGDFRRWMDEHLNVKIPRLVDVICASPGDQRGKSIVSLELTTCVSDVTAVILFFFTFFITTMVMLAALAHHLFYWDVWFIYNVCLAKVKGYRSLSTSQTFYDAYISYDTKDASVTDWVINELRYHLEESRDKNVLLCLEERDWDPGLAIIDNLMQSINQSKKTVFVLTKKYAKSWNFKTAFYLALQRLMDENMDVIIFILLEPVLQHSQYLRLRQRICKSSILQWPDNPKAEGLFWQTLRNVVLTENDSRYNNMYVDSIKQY
Description: as §1, §2, §3, §4, §5

[3] = agonist activity, read-out: hTLR8(EC50)

Compound `CCCCCc1cc(Cc2ccc(COC)cc2)c(C)nc1N` [Compound N27] has an EC50 [1] greater than 25000 nM and an EC50 [2, 3] greater than 4000 nM.
`CCCCCc1cc(Cc2ccc(CN)cc2)c(C)nc1N` [Compound N5] showed an EC50 [1] greater than 25000 nM and an EC50 [2, 3] of 122 nM.
Work on `CCCCNc1cc(Cc2ccc(CN(C)C)cc2)c(C)nc1N` [Compound N55] yielded an EC50 [1] greater than 25000 nM and an EC50 ([2]; read-out: concentration for 50% of maximal effect (EC50) hTLR8) of 15 nM.
In the case of `CCCCCc1cc(Cc2ccccc2CN2CCOCC2)c(C)nc1N` [Compound N36], the EC50 [1] is reported as greater than 25000 nM and the EC50 [2, 3] is reported as greater than 4000 nM.
Work on `CCCCCc1cc(Cc2ccc(CN(C)C)cc2OC(C)=O)c(C)nc1N` [Compound N50] yielded an EC50 [1] greater than 25000 nM and an EC50 [2, 3] of 105 nM.
Compound `CCCCCc1cc(Cc2ccc(CN3CCCCCC3)cc2)c(C)nc1N` [Compound N12] has an EC50 [1] greater than 25000 nM and an EC50 [2, 3] of 109 nM.
Compound `CCCCCc1cc(Cc2ccccc2CO)c(C)nc1N` [Compound N33] has an EC50 [1] greater than 25000 nM and an EC50 [2, 3] greater than 4000 nM.
Work on `CCCCCc1cc(Cc2ccc(CN3CCOCC3)cc2OC)c(C)nc1N` [Compound N44] yielded an EC50 [1] greater than 25000 nM and an EC50 [2, 3] of 1130 nM.
Compound `CCCCCc1cc(Cc2ccc(CN(C)C)cc2OC)c(C)nc1N` [Compound N42] has an EC50 [1] greater than 25000 nM and an EC50 [2, 3] of 87 nM.
Work on `CCCCCc1cc(Cc2ccc(CN3CCOCC3)cc2)c(C)nc1N` [Compound N8] yielded an EC50 [1] greater than 25000 nM and an EC50 [2, 3] of 428 nM.
`CCCCCc1cc(Cc2ccc(CN3CC4(COC4)C3)cc2)c(C)nc1N` [Compound N22] showed an EC50 [1] greater than 25000 nM and an EC50 [2, 3] of 81 nM.
`CCCCCc1cc(Cc2ccccc2CN(C)C)c(C)nc1N` [Compound N34] was tested, and the EC50 [1] was greater than 25000 nM and the EC50 [2, 3] was greater than 4000 nM.
`CCCCCc1cc(Cc2ccc(C(=O)N3CCCC3)cc2)c(C)nc1N` [Compound N39] showed an EC50 [1] greater than 25000 nM and an EC50 [2, 3] greater than 4000 nM.
`CCCCCc1cc(CCc2ccc(CN(C)C)cc2)c(C)nc1N` [Compound N54] gave an EC50 [1] greater than 25000 nM and an EC50 [2, 3] of 518 nM.
In the case of `CCCCCc1cc(Cc2cccc(CN(C)C)c2)c(C)nc1N` [Compound N32], the EC50 [1] is reported as greater than 25000 nM and the EC50 [2, 3] is reported as 290 nM.
`CCCCNc1cc(Cc2ccc(CN3CCCC3)cc2)c(C)nc1N` [Compound N56] gave an EC50 [1] greater than 25000 nM and an EC50 [2, 3] of 28 nM.
Compound `CCCCCc1cc(Cc2ccccc2CN)c(C)nc1N` [Compound N37] has an EC50 [1] greater than 25000 nM and an EC50 [2, 3] greater than 4000 nM.
Compound `CCCCCc1cc(Cc2ccc(CNC)cc2)c(C)nc1N` [Compound N6] has an EC50 [1] greater than 25000 nM and an EC50 [2, 3] of 84 nM.
